Assay results taken from publication PMC8371902, “Phase 1 study of M2698, a p70S6K/AKT dual inhibitor, in patients with advanced cancer” (Journal of Hematology & Oncology, 2021).
Where two headings read alike, the source gives them in different places.

Tested on: patients with advanced metastatic cancer
From the text: In this phase 1 study, dose escalation was followed by expansion cohorts of once-daily, oral M2698 in continuous 21-day cycles. Primary objectives were to determine the maximum tolerated dose (MTD), dose-limiting toxicities (DLTs), and recommended phase 2 dose (RP2D). Secondary objectives were to assess safety and tolerability, pharmacokinetics (PK, including food effect) and antitumor activity. Pharmacodynamic biomarker assessments were exploratory. Treatment was discontinued if there was disease progression, toxicity or consent withdrawal.
In Part 1, M2698 monotherapy was investigated in a dose escalation with a food effect cohort. In Part 2, M2698 was investigated as monotherapy (expansion cohort) to further characterize safety, tolerability and pharmacokinetics, and assess antitumor activity in PAM + patients without confounding markers (exploratory).
Dose escalation analysis included all patients who experienced a DLT and those who received ≥ 80% of planned M2698 doses in cycle 1 without experiencing a DLT. Safety analysis included all patients who received ≥ 1 dose of M2698. PK analysis included all patients who received ≥ 1 dose of M2698 and had measurable plasma concentrations. Dose proportionality was tested using the power model (linear regression approach on the log -transformed scale).

SMILES: NC(=O)c1cccc2c(N[C@H](CN3CCC3)c3ccc(Cl)c(C(F)(F)F)c3)ncnc12 [M2698]
- M2698-related TEAE: Dysphagia (380 mg n=4): 0
- M2698-related TEAE: Energy increased (380 mg n=4): 0
- M2698-related TEAE: Erythema (380 mg n=4): 0
- M2698-related TEAE: Euphoric mood (380 mg n=4): 0
- M2698-related TEAE: Eye disorders (380 mg n=4): 0
- M2698-related TEAE: Fatigue (380 mg n=4): 0
- M2698-related TEAE: Gamma-glutamyltransferase increased (380 mg n=4): 0
- M2698-related TEAE: Gastrointestinal disorders (380 mg n=4): 2
- M2698-related TEAE: Gastrooesophageal reflux disease (380 mg n=4): 0
- M2698-related TEAE: General disorders and administration site conditions (380 mg n=4): 0
- M2698-related TEAE: Headache (380 mg n=4): 0
- M2698-related TEAE: Hyperhidrosis (380 mg n=4): 0
- M2698-related TEAE: Hypokalaemia (380 mg n=4): 0
- M2698-related TEAE: Hypomagnesaemia (380 mg n=4): 0
- M2698-related TEAE: Insomnia (380 mg n=4): 0
- M2698-related TEAE: Investigations (380 mg n=4): 1
- M2698-related TEAE: Lipase increased (380 mg n=4): 0
- M2698-related TEAE: Lymphopenia (380 mg n=4): 0
- M2698-related TEAE: Metabolism and nutrition disorders (380 mg n=4): 0
- M2698-related TEAE: Mucosal inflammation (380 mg n=4): 0
- M2698-related TEAE: Nausea (380 mg n=4): 1
- M2698-related TEAE: Nervous system disorders (380 mg n=4): 1
- M2698-related TEAE: Nightmare (380 mg n=4): 0
- M2698-related TEAE: Onychomadesis (380 mg n=4): 0
- M2698-related TEAE: Paranoia (380 mg n=4): 0
- M2698-related TEAE: Photosensitivity reaction (380 mg n=4): 0
- M2698-related TEAE: Posterior reversible encephalopathy syndrome (380 mg n=4): 1
- M2698-related TEAE: Pruritus generalised (380 mg n=4): 0
- M2698-related TEAE: Psychiatric disorders (380 mg n=4): 0
- M2698-related TEAE: Rash (380 mg n=4): 0
- M2698-related TEAE: Rash maculo-papular (380 mg n=4): 0
- M2698-related TEAE: Skin and subcutaneous tissue disorders (380 mg n=4): 0
- M2698-related TEAE: Subjects with at least one event (380 mg n=4): 3
- M2698-related TEAE: Transaminases increased (380 mg n=4): 0
- M2698-related TEAE: Tremor (380 mg n=4): 0
- M2698-related TEAE: Vision blurred (380 mg n=4): 0
- M2698-related TEAE: Vomiting (380 mg n=4): 1
- M2698-related TEAE: White blood cell count decreased (380 mg n=4): 0
- M2698-related TEAE: Abnormal dreams (Overall N=62): 6 (9.7) n (%)
- M2698-related TEAE: Affect lability (Overall N=62): 1 (1.6) n (%)
- M2698-related TEAE: Alanine aminotransferase increased (Overall N=62): 1 (1.6) n (%)
- M2698-related TEAE: Amylase increased (Overall N=62): 1 (1.6) n (%)
- M2698-related TEAE: Anaemia (Overall N=62): 2 (3.2) n (%)
- M2698-related TEAE: Angina pectoris (Overall N=62): 1 (1.6) n (%)
- M2698-related TEAE: Anxiety (Overall N=62): 1 (1.6) n (%)
- M2698-related TEAE: Aphasia (Overall N=62): 1 (1.6) n (%)
- M2698-related TEAE: Ataxia (Overall N=62): 1 (1.6) n (%)
- M2698-related TEAE: Blood and lymphatic system disorders (Overall N=62): 3 (4.8) n (%)
- M2698-related TEAE: Blood creatine phosphokinase increased (Overall N=62): 2 (3.2) n (%)
- M2698-related TEAE: Blood creatinine increased (Overall N=62): 2 (3.2) n (%)
- M2698-related TEAE: Cardiac disorders (Overall N=62): 1 (1.6) n (%)
- M2698-related TEAE: Cognitive disorder (Overall N=62): 1 (1.6) n (%)
- M2698-related TEAE: Constipation (Overall N=62): 3 (4.8) n (%)
- M2698-related TEAE: Decreased appetite (Overall N=62): 2 (3.2) n (%)
- M2698-related TEAE: Delusion (Overall N=62): 1 (1.6) n (%)
- M2698-related TEAE: Depression (Overall N=62): 2 (3.2) n (%)
- M2698-related TEAE: Diarrhoea (Overall N=62): 7 (11.3) n (%)
- M2698-related TEAE: Diarrhoea haemorrhagic (Overall N=62): 1 (1.6) n (%)
- M2698-related TEAE: Dizziness (Overall N=62): 1 (1.6) n (%)
- M2698-related TEAE: Dry eye (Overall N=62): 1 (1.6) n (%)
- M2698-related TEAE: Dry mouth (Overall N=62): 1 (1.6) n (%)
- M2698-related TEAE: Dysgeusia (Overall N=62): 2 (3.2) n (%)
- M2698-related TEAE: Dyspepsia (Overall N=62): 1 (1.6) n (%)
- M2698-related TEAE: Dysphagia (Overall N=62): 1 (1.6) n (%)
- M2698-related TEAE: Energy increased (Overall N=62): 1 (1.6) n (%)
- M2698-related TEAE: Erythema (Overall N=62): 1 (1.6) n (%)
- M2698-related TEAE: Euphoric mood (Overall N=62): 1 (1.6) n (%)
- M2698-related TEAE: Eye disorders (Overall N=62): 2 (3.2) n (%)
- M2698-related TEAE: Fatigue (Overall N=62): 4 (6.5) n (%)
- M2698-related TEAE: Gamma-glutamyltransferase increased (Overall N=62): 2 (3.2) n (%)
- M2698-related TEAE: Gastrointestinal disorders (Overall N=62): 18 (29.0) n (%)
- M2698-related TEAE: Gastrooesophageal reflux disease (Overall N=62): 1 (1.6) n (%)
- M2698-related TEAE: General disorders and administration site conditions (Overall N=62): 6 (9.7) n (%)
- M2698-related TEAE: Headache (Overall N=62): 1 (1.6) n (%)
- M2698-related TEAE: Hyperhidrosis (Overall N=62): 1 (1.6) n (%)
- M2698-related TEAE: Hypokalaemia (Overall N=62): 2 (3.2) n (%)
- M2698-related TEAE: Hypomagnesaemia (Overall N=62): 1 (1.6) n (%)
- M2698-related TEAE: Insomnia (Overall N=62): 2 (3.2) n (%)
- M2698-related TEAE: Investigations (Overall N=62): 9 (14.5) n (%)
- M2698-related TEAE: Lipase increased (Overall N=62): 1 (1.6) n (%)
- M2698-related TEAE: Lymphopenia (Overall N=62): 1 (1.6) n (%)
- M2698-related TEAE: Metabolism and nutrition disorders (Overall N=62): 4 (6.5) n (%)
- M2698-related TEAE: Mucosal inflammation (Overall N=62): 1 (1.6) n (%)
- M2698-related TEAE: Nausea (Overall N=62): 12 (19.4) n (%)
- M2698-related TEAE: Nervous system disorders (Overall N=62): 10 (16.1) n (%)
- M2698-related TEAE: Nightmare (Overall N=62): 1 (1.6) n (%)
- M2698-related TEAE: Onychomadesis (Overall N=62): 1 (1.6) n (%)
- M2698-related TEAE: Paranoia (Overall N=62): 1 (1.6) n (%)
- M2698-related TEAE: Photosensitivity reaction (Overall N=62): 1 (1.6) n (%)
- M2698-related TEAE: Posterior reversible encephalopathy syndrome (Overall N=62): 1 (1.6) n (%)
- M2698-related TEAE: Pruritus generalised (Overall N=62): 1 (1.6) n (%)
- M2698-related TEAE: Psychiatric disorders (Overall N=62): 10 (16.1) n (%)
- M2698-related TEAE: Rash (Overall N=62): 1 (1.6) n (%)
- M2698-related TEAE: Rash maculo-papular (Overall N=62): 2 (3.2) n (%)
- M2698-related TEAE: Skin and subcutaneous tissue disorders (Overall N=62): 8 (12.9) n (%)
- M2698-related TEAE: Subjects with at least one event (Overall N=62): 34 (54.8) n (%)
- M2698-related TEAE: Transaminases increased (Overall N=62): 1 (1.6) n (%)
- M2698-related TEAE: Tremor (Overall N=62): 4 (6.5) n (%)
- M2698-related TEAE: Vision blurred (Overall N=62): 1 (1.6) n (%)
